# According to US6489440B1, “Cyclic compounds” (Basilea Pharmaceutica AG, priority 1998, dated 2002):
# Numbered stars: 1 amine (or outer) side, 2 acyl side, 3 side chain; on linkers, the order of the positions; unused ones are H or OH. Bridge positions count the residues as written; N and C are the ends. Square brackets hold non-standard residues; d marks the D form. Peptide text beside a SMILES is read from it. * marks the point of attachment. ξ: configuration not given here. pTerphenylCO(4''-OnC5H11) = CCCCCOc1ccc(-c2ccc(-c3ccc(C(=O)*)cc3)cc2)cc1; Orn(4R-OH,5R-OH) = O=C([C@H](C[C@@H](O)[C@@H](O)N[*:3])N[*:1])[*:2]; hTyr(3S-OH,4S-OH) = N[C@H](C(=O)O)[C@H](O)[C@@H](O)c1ccc(O)cc1; X5 = CC(C)CCCOc1ccc(-c2ccc(CC[C@H](CC(=O)[*:1])N[*:2])cc2)cc1; X3 = CCCCCCCOc1ccc(-c2ccc(CC[C@H](CC(=O)[*:1])N[*:2])cc2)cc1; ξTyr(3-NO2) = NC(Cc1ccc(O)c([N+](=O)[O-])c1)C(=O)O; Pro(3S-OH,4S-Me) = C[C@H]1CN[C@H](C(=O)O)[C@H]1O; X6 = CCCCCCCCCCCCC[C@H](CC(=O)NC(C(=O)O)C(C)O)O*; X4 = CC(=O)Nc1cc(CC(N[*:1])C(=O)[*:2])ccc1O; X9 = CCCCCCCCCCCCC[C@H](CC(=O)[*:1])O[*:2]; X2 = NC(=O)CC(O)C(N[*:1])C(=O)[*:2]; ξDopa = NC(Cc1ccc(O)c(O)c1)C(=O)O; Hyp = O=C(O)[C@@H]1C[C@@H](O)CN1; X1 = O=C(C1C(O)CCN1[*:1])[*:2]; ξY = NC(Cc1ccc(O)cc1)C(=O)O; ξHyp = O=C(O)C1CC(O)CN1; ξOrn = NCCCC(N)C(=O)O; ξT = CC(O)C(N)C(=O)O; ξV = CC(C)C(N)C(=O)O; ξA = CC(N)C(=O)O
# Key:
# Candida albicans CY1002 = assay: In vitro antifungal activity, broth micro-dilution; format: cell-based; conditions: YNB medium, 1-2 days at 35° C.
# Description: (§1) The in vitro antifungal activities of the representative Aerothricins of the present study were evaluated by determining the 50% inhibitory concentration (IC50), which was calculated as the lowest concentration of an antifungal to inhibit the growth of fungus to […] turbidity compared with the drug-free control growth spectrophotometrically.
# (§2) The IC50 values were determined by the broth micro-dilution procedure based on NCCLS Approved Standard with the following minor modifications (National Committee for Clinical Laboratory Standards. (1997) Reference method for broth dilution antifungal susceptibility testing for yeasts. Approved standard. Document M27-A). Yeast Nitrogen Base (YNB; Difco Lab.) supplemented with 1% glucose and 0.25% K2HPO4 was used as testing medium for yeast, the same medium solidified with 0.2% low melting point agarose (BRL) was used for filamentous fungi. Inoculum size was 1-3×10^4 cells/ml, and incubation was performed for 1-2 days at 35° C.
# [1] = test system: Aspegillus fumigatus CF1003; assay: In vitro antifungal activity, broth micro-dilution; format: cell-based; conditions: YNB with 0.2% agarose, 1-2 days at 35° C.
# Description: as §1, §2
# Fusarium solani CF1088 = assay: In vitro antifungal activity, broth micro-dilution; format: cell-based; conditions: YNB with 0.2% agarose, 1-2 days at 35° C.
# Description: as §1, §2
# Candida albicans = assay: In vivo antifungal efficacy, systemic candidiasis in mice; set-up: species or system Crj: CD-1 (ICR) mice; conditions: i.v., b.i.d×1 day followed by q.d.×2 days; from survival on day 14
# Description: Mice of a conventional immunocompetent mouse strain, Crj: CD-1 (ICR) were used for experimental infection models of systemic candidiasis. 4 weeks old Crj: CD-1 (ICR) mice were used for systemic candidiasis by injecting Candida albicans 5×10^6 conidia/mouse via the tail vein. Treatments were given twice (0, 4 h after infection) on the first day and once daily on following 2 days for systemic candidiasis (b.i.d×1 day followed by q.d.×2 days), intravenously (i.v.). 50% of effective dose (ED50) values was calculated from the survival number at each dose on day 14.
# Solubility = conditions: solvents in which soluble
# mouse hepatocytes = assay: In vitro hepatotoxicity test; format: cell-based; conditions: mouse hepatocyte monolayers exposed 1 day, morphological evaluation
# Text: The mouse hepatocytes were isolated by a collagenase digestion and cultured in microtest plates. The hepatocyte monolayers were exposed to the test Aerothricins in the culture system for 1 day. After the culture period, the hepatocytes were observed under a microscope and evaluated morphologically. The degree of the morphological alteration (degeneration) of the hepatocytes by the test Aerothricins were compared with WF 11243 and LY303366.
Compound,"In vitro Antifungal activity, IC50 (Candida albicans CY1002) [µg/mL]","In vitro Antifungal activity, IC50 [1] [µg/mL]","In vitro Antifungal activity, IC50 (Fusarium solani CF1088) [µg/mL]","In vivo antifungal activity against systemic candidiasis in mice, ED50 on day 14 (Candida albicans) [mg/kg]",further results
CCCCCCCOc1ccc(-c2ccc(CC[C@@H]3CC(=O)NC(C(C)O)C(=O)NC(C)C(=O)NC(Cc4ccc(O)cc4)C(=O)NC(C(C)C)C(=O)N4CC(O)CC4C(=O)NC(C(C)O)C(=O)NC(C(C)O)C(=O)N4CCC(O)C4C(=O)NC(C(O)CC(N)=O)C(=O)NCC(=O)NC(C(C)O)C(=O)NC(CCCN)C(=O)N3)cc2)cc1 (stereo partly shown) [Aerothricin 43] ([ξT][ξA][ξY][ξV][ξHyp][ξT][ξT][X1][X2]G[ξT][ξOrn]; linker N-C via X3),0.05,0.04,0.70,–,–
CCCCCCCOc1ccc(-c2ccc(CC[C@@H]3CC(=O)NC(C(C)O)C(=O)NC(C)C(=O)NC(Cc4ccc(O)c([N+](=O)[O-])c4)C(=O)NC(C(C)C)C(=O)N4CC(O)CC4C(=O)NC(C(C)O)C(=O)NC(C(C)O)C(=O)N4CCC(O)C4C(=O)NC(C(O)CC(N)=O)C(=O)NCC(=O)NC(C(C)O)C(=O)NC(CCCN)C(=O)N3)cc2)cc1 (stereo partly shown) [Aerothricin 55] ([ξT][ξA][ξTyr(3-NO2)][ξV][ξHyp][ξT][ξT][X1][X2]G[ξT][ξOrn]; linker N-C via X3),0.04,0.04,0.39,<0.3,–
CCCCCCCCCCCCC[C@H](CC(=O)NC(C(=O)O)C(C)O)OC(=O)C(CCCN)NC(=O)C(NC(=O)CNC(=O)C(NC(=O)C1C(O)CCN1C(=O)C(NC(=O)C(NC(=O)C1CC(O)CN1C(=O)C(N)C(C)C)C(C)O)C(C)O)C(O)CC(N)=O)C(C)O (stereo partly shown) [Compound (IX)] (H-[ξV][ξHyp][ξT][ξT][X1][X2]G[ξT][ξOrn]-X6),–,–,–,–,"Solubility (Solubility): Soluble: water, methanol, dimethylsulfoxide"
CCCCCCCCCCCCC[C@@H]1CC(=O)NC(C(C)O)C(=O)NC(C)C(=O)NC(Cc2ccc(O)c(O)c2)C(=O)NC(C(C)C)C(=O)N2CC(O)CC2C(=O)NC(C(C)O)C(=O)NC(C(C)O)C(=O)N2CCC(O)C2C(=O)NC(C(O)CC(N)=O)C(=O)NCC(=O)NC(C(C)O)C(=O)NC(CCCN)C(=O)O1 (stereo partly shown) [Aerothricin 2] ([ξT][ξA][ξDopa][ξV][ξHyp][ξT][ξT][X1][X2]G[ξT][ξOrn]; linker N-C via X9),–,–,–,–,"Solubility (Solubility): Soluble: water, methanol, dimethylsulfoxide"
"CCCCCOc1ccc(-c2ccc(-c3ccc(C(=O)N[C@H]4C[C@@H](O)[C@@H](O)NC(=O)[C@@H]5[C@@H](O)[C@@H](C)CN5C(=O)[C@H]([C@@H](C)O)NC(=O)[C@H]([C@H](O)[C@@H](O)c5ccc(O)cc5)NC(=O)[C@@H]5C[C@@H](O)CN5C(=O)[C@H]([C@@H](C)O)NC4=O)cc3)cc2)cc1 [LY303366, reference compound] ({pTerphenylCO(4''-OnC5H11)}-[Orn(4R-OH,5R-OH)]T[Hyp][hTyr(3S-OH,4S-OH)]T[Pro(3S-OH,4S-Me)]; lactam 1-C)",–,–,–,–,Cytotoxicity to hepatocyte (mouse hepatocytes): 10 µg/mL
CCCCCCCOc1ccc(-c2ccc(CC[C@@H]3CC(=O)NC(C(C)O)C(=O)NC(C)C(=O)NC(Cc4ccc(O)c(NC(C)=O)c4)C(=O)NC(C(C)C)C(=O)N4CC(O)CC4C(=O)NC(C(C)O)C(=O)NC(C(C)O)C(=O)N4CCC(O)C4C(=O)NC(C(O)CC(N)=O)C(=O)NCC(=O)NC(C(C)O)C(=O)NC(CCCN)C(=O)N3)cc2)cc1 (stereo partly shown) [Aerothricin 57] ([ξT][ξA][X4][ξV][ξHyp][ξT][ξT][X1][X2]G[ξT][ξOrn]; linker N-C via X3),0.14,0.05,1.30,–,–
CCCCCCCCCCOc1ccc(CC[C@@H]2CC(=O)NC(C(C)O)C(=O)NC(C)C(=O)NC(Cc3ccc(O)cc3)C(=O)NC(C(C)C)C(=O)N3CC(O)CC3C(=O)NC(C(C)O)C(=O)NC(C(C)O)C(=O)N3CCC(O)C3C(=O)NC(C(O)CC(N)=O)C(=O)NCC(=O)NC(C(C)O)C(=O)NC(CCCN)C(=O)N2)cc1 (stereo partly shown) [Aerothricin 36],–,–,–,0.6,–
CC(C)CCCOc1ccc(-c2ccc(CC[C@@H]3CC(=O)NC(C(C)O)C(=O)NC(C)C(=O)NC(Cc4ccc(O)cc4)C(=O)NC(C(C)C)C(=O)N4CC(O)CC4C(=O)NC(C(C)O)C(=O)NC(C(C)O)C(=O)N4CCC(O)C4C(=O)NC(C(O)CC(N)=O)C(=O)NCC(=O)NC(C(C)O)C(=O)NC(CCCN)C(=O)N3)cc2)cc1 (stereo partly shown) [Aerothricin 45] ([ξT][ξA][ξY][ξV][ξHyp][ξT][ξT][X1][X2]G[ξT][ξOrn]; linker N-C via X5),–,–,–,0.3,Cytotoxicity to hepatocyte (mouse hepatocytes): >100 µg/mL
